Results: the supplement of paper PMC7224384

What was measured:
MDA-MB-453 [1] = test: drug sensitivity score (DSS), single agent (DSS (weighted AUC score)); higher = more sensitive (stronger viability decrease); extreme values may be limits of the assay; conditions: BLU9931 0 nM; 72 h
Method in brief: (§1)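 Drug sensitivity scores come from a weighted area under a four-parameter logistic fit to percent viability, normalised per plate to control wells. Viability was based on cellular ATP read with CellTiterGlo 2.0 after 72 h at 37 °C, 5% CO2. Each 384-well plate carried FIMM Oncology set compounds in singlicate at five 10-fold dilutions, with 2000 MDA-MB-453 cells per well in medium with or without an FGFR4 inhibitor at 100 nM final.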

MDA-MB-453 [2] = test: drug sensitivity score (DSS), in combination with BLU9931 (DSS (weighted AUC score)); higher = more sensitive (stronger viability decrease); extreme values may be limits of the assay; conditions: BLU9931 100 nM; 72 h
Method in brief: as §1

Compound | drug sensitivity score (MDA-MB-453 [1]) | drug sensitivity score (MDA-MB-453 [2])
FC(F)c1nc2ccccc2n1-c1nc(N2CCOCC2)nc(N2CCOCC2)n1 [ZSTK474] | 14.9 | 15.6
CCn1c(=O)c(-c2ccc(Cl)cc2Cl)cc2cnc(Nc3ccc(N4CCNCC4)c(F)c3)nc21 [FRAX486] | 3.9 | 1.1
CCN(c1cc(-c2ccc(CN3CCOCC3)cc2)cc(C(=O)NCc2c(C)cc(C)[nH]c2=O)c1C)C1CCOCC1 [Tazemetostat] | 2.1 | 0
FC(F)(F)c1ccc(CNc2ccc(Cc3c[nH]c4ncc(Cl)cc34)cn2)cn1 [Pexidartinib] | 1.2 | 0.1
CCN(CC)CCCC(C)Nc1ccnc2cc(Cl)ccc12 (centres undefined) [Chloroquine] | 7.6 | 7
O=C(/C=C/c1cccnc1)NCCCCC1CCN(C(=O)c2ccccc2)CC1 [Daporinad] | 30.5 | 28.6
CNc1nc(-c2ccc3c(N)n[nH]c3c2)cc(N2C[C@@H](C(=O)NC3CCCCC3)CC[C@H]2C)n1 | 4.8 | 3.9
COC(=O)N[C@@H](C)CNc1nccc(-c2cn(C(C)C)nc2-c2cc(Cl)cc(NS(C)(=O)=O)c2F)n1 [Encorafenib] | 0.2 | 0
COc1cc(Br)c(Nc2nc(-c3c(C)nc4ncccn34)cs2)c(Br)c1 [PTC-209] | 3.2 | 2
C[C@]12C=CC(=O)C=C1CC[C@@H]1[C@@H]2[C@@H](O)C[C@@]2(C)[C@H]1CC[C@]2(O)C(=O)CO [Prednisolone] | 8.2 | 0
CN(C)C(=O)c1cc2cnc(Nc3ccc(N4CCNCC4)cn3)nc2n1C1CCCC1 [Ribociclib] | 1.4 | 3.6
C[C@@H]1CN(C(=O)c2ccc(NC(=O)c3cc(O[C@H](C)c4c(Cl)ccc(F)c4Cl)c(N)nn3)cc2)C[C@H](C)N1 [Ensartinib] | 0 | 0
CCC/C=C/C=C/C(=O)O[C@H]1/C(=C/C(=O)OC)C[C@H]2C[C@H]([C@@H](C)O)OC(=O)C[C@H](O)C[C@@H]3C[C@H](OC(C)=O)C(C)(C)[C@](O)(C[C@@H]4C/C(=C/C(=O)OC)C[C@H](/C=C/C(C)(C)[C@]1(O)O2)O4)O3 [Bryostatin 1] | 7.9 | 2.3
COc1cc2ncnc(Oc3cccc(NC(=O)Nc4cc(C(C)(C)C(F)(F)F)on4)c3)c2cc1OC | 5.1 | 3.2
CCOc1cc2ncc(C#N)c(Nc3ccc(OCc4ccccn4)c(Cl)c3)c2cc1NC(=O)/C=C/CN(C)C [Neratinib] | 15.4 | 17.9
COc1cc2c(Oc3ccc4[nH]c(C)cc4c3F)ncnc2cc1OCCCN1CCCC1 [Cediranib] | 0 | 0
C[C@H]1CNCCCN1S(=O)(=O)c1cccc2cncc(F)c12 [Ripasudil] | 0 | 0.1
